Results reported in ChEMBL document CHEMBL1126271, “Benzazepinone calcium channel blockers. 5. Effects on antihypertensive activity associated with N1 and aromatic substituents” (J Med Chem, 1992).

Legend:
Assay type in all cases: functional
Rattus norvegicus [1] = organism: Rattus norvegicus; experiment: Extent of hydrolysis of C3 acetyl group of 0.4 mM of compound 5 min after exposure by rat liver homogenate
Rattus norvegicus [2] = experiment: Antihypertensive activity 12-18 hr after 135 umol/kg p.o. in rats.
Rattus norvegicus [3] = organism: Rattus norvegicus; experiment: Extent of hydrolysis of C3 acetyl group of 0.4 mM of compound 30 min after exposure by rat liver homogenate
Oryctolagus cuniculus = organism: Oryctolagus cuniculus; experiment: In vitro vasorelaxant activity in circumferential strips of potassium-depolarized rabbit aorta.
Rattus norvegicus [4] = experiment: Antihypertensive activity 6-12h after 135 umol/kg p.o. in rats.
Rattus norvegicus [5] = experiment: Antihypertensive activity 0-6 hr after 135 umol/kg p.o. in rats.

Row | Compound | Hydrolysis (Rattus norvegicus [1]) [%] | Decrease in blood pressure (Rattus norvegicus [2]) [%] | Hydrolysis (Rattus norvegicus [3]) [%] | IC50 (Oryctolagus cuniculus) [µM] | Decrease in blood pressure (Rattus norvegicus [4]) [%] | Decrease in blood pressure (Rattus norvegicus [5]) [%]
1 | COc1ccc([C@@H]2Cc3cc(OC)ccc3N(C[C@@H]3CCCN3)C(=O)[C@@H]2OC(C)=O)cc1 | 3 | 31 | 3 | 0.23 | 33 | 39
2 | COc1ccc([C@@H]2Cc3c(cccc3C(F)(F)F)N(C[C@@H]3CCCN3)C(=O)[C@@H]2O)cc1 | – | 21 | – | 0.1 | 21 | 32
3 | COc1ccc([C@@H]2Cc3cc(Cl)ccc3N(CCN(C)C)C(=O)[C@@H]2OC(C)=O)cc1 | – | 12 | – | – | 12 | 12
4 | COc1ccc([C@@H]2Cc3c(Cl)cccc3N(C[C@@H]3CCCN3)C(=O)[C@@H]2O)cc1 | – | 13 | – | 0.13 | 15 | 19
5 | COc1ccc([C@@H]2Cc3cc(OC)ccc3N(C[C@@H]3CCCN3)C(=O)[C@@H]2O)cc1 | – | 18 | – | 1.12 | 19 | 18
6 | COc1ccc([C@@H]2Cc3c(cccc3C(F)(F)F)N(CCN(C)C)C(=O)[C@@H]2OC(C)=O)cc1 | 0 | 29 | 2 | – | 29 | 29
7 | COc1ccc(C2Cc3c(Cl)cccc3N(CCN(C)C)C(=O)C2OC(C)=O)cc1 (racemic) | – | – | – | – | – | 10
8 | COc1ccc(C2Sc3cc(OC)ccc3N(CCN(C)C)C(=O)C2OC(C)=O)cc1 (racemic) | – | 19 | – | 0.13 | 21 | 34
9 | COc1ccc([C@@H]2Sc3cc(OC)ccc3N(C[C@@H]3CCCN3)C(=O)[C@@H]2OC(C)=O)cc1 | 3 | 37 | 7 | 0.12 | 39 | 42
10 | COc1ccc([C@@H]2Cc3c(cccc3C(F)(F)F)N(C[C@@H]3CCCN3)C(=O)[C@@H]2OC(C)=O)cc1 | 0 | 38 | 0 | – | – | 44
11 | COc1ccc([C@@H]2Cc3cc(C(F)(F)F)ccc3N(CCN(C)C)C(=O)[C@@H]2OC(C)=O)cc1 | – | – | – | – | – | 19
12 | COc1ccc([C@@H]2Cc3ccccc3N(CCN(C)C)C(=O)[C@@H]2OC(C)=O)cc1 | 18 | 13 | 53 | 2.99 | – | –
13 | COc1ccc(C2Cc3cc(C(F)(F)F)ccc3N(CCN(C)C)C(=O)C2OC(C)=O)cc1 (stereo unspecified) | – | – | – | 1.9 | – | –
14 | COc1ccc([C@@H]2Sc3ccccc3N(C[C@@H]3CCCN3)C(=O)[C@@H]2O)cc1 | – | 9 | – | 1.32 | 10 | 10
15 | COc1ccc([C@@H]2Cc3c(Cl)cccc3N(C[C@@H]3CCCN3)C(=O)[C@@H]2OC(C)=O)cc1 | 7 | 20 | 17 | 0.12 | 17 | 18
16 | COc1ccc([C@@H]2Sc3cc(OC)ccc3N(C[C@@H]3CCCN3)C(=O)[C@@H]2O)cc1 | – | 23 | – | 0.37 | 33 | 32
17 | COc1ccc([C@@H]2Sc3ccccc3N(CCN(C)C)C(=O)[C@@H]2OC(C)=O)cc1 [DILTIAZEM] | 68 | 19 | 100 | – | – | 20
18 | COc1ccc([C@@H]2Sc3ccccc3N(C[C@@H]3CCCN3)C(=O)[C@@H]2OC(C)=O)cc1 | 32 | 10 | 57 | 0.34 | 8 | 18
